Data published in patent US20240360178A1, “MACROCYCLIC IMMUNOMODULATORS” (Bristol-Myers Squibb Company, priority 2021, published 2024).
Positions of bridges follow the written chain, without caps; N, C: chain ends. Non-standard residues stand in square brackets, D forms with d. Residues, ends and D or L forms follow the SMILES beside them. ξ: configuration not given here. *: point of attachment. Tyr(3-NO2) = N[C@@H](Cc1ccc(O)c([N+](=O)[O-])c1)C(=O)O; Phe(4-CH2NH2) = NCc1ccc(C[C@H](N)C(=O)O)cc1; Bip = N[C@@H](Cc1ccc(-c2ccccc2)cc1)C(=O)O; Phe(3-CN) = N#Cc1cccc(C[C@H](N)C(=O)O)c1; Phe(3-OMe) = COc1cccc(C[C@H](N)C(=O)O)c1; Phe(3-Me) = Cc1cccc(C[C@H](N)C(=O)O)c1; Val(3-OH) = CC(C)(O)[C@H](N)C(=O)O; NMeF = CN[C@@H](Cc1ccccc1)C(=O)O; hArg = N=C(N)NCCCC[C@H](N)C(=O)O; 4Pal = N[C@@H](Cc1ccncc1)C(=O)O; Cha = N[C@@H](CC1CCCCC1)C(=O)O; Cit = NC(=O)NCCC[C@H](N)C(=O)O; dDab = NCC[C@@H](N)C(=O)O; Carboxymethyl = O=C(O)C*; NMeA = CN[C@@H](C)C(=O)O; ξF = NC(Cc1ccccc1)C(=O)O; Dab = NCC[C@H](N)C(=O)O; Dap = NC[C@H](N)C(=O)O; Sar = CNCC(=O)O

Target: T1, human PD-1 (Jurkat-PD-1 cells) / PE-labeled human PD-L1-Ig (Homo sapiens, UniProt Q15116)
T1 construct: expressed in transfected cells; host or cells: Jurkat cell line over-expressing human PD-1
T1 sequence (Q15116 25-288): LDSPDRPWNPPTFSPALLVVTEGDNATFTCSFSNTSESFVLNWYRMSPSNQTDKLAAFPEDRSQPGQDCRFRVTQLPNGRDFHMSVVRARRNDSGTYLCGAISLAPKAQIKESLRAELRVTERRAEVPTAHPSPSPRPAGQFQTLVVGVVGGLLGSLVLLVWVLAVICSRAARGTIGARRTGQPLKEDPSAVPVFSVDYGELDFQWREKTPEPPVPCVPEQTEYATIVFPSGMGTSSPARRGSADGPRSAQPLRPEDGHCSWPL
Assay: Jurkat-PD-1 Cell Binding High-Content Screening Assay (CBA); Jurkat hPD1-PDL1 assay
Details: Jurkat cell line over-expressing human PD-1; PE-labeled PD-L1-Ig 20 nM final; compound incubated 2 hours at 37° C.; read-out: Jurkat HPD1-PDL1 IC50
Summary of the method: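 Read-out is high-content imaging of PE fluorescence on PD-1-over-expressing Jurkat cells. Cells are first exposed to compound for 2 hours at 37° C in serum-containing DMEM, after which PE-labeled PD-L1-Ig is added at 20 nM final.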

IC50 [µM] | SMILES
0.43 | CC(C)C[C@@H]1NC(=O)[C@H](CCCNC(=N)N)NC(=O)[C@H]2CCCN2C(=O)[C@H](C)N(C)C(=O)[C@H](CCCNC(=N)N)NC(=O)[C@H](Cc2ccc(-c3ccccc3)cc2)NC(=O)[C@H](C(C)C)NC(=O)[C@H](Cc2c[nH]c3ccccc23)NC(=O)[C@H](CC(=O)O)NC(=O)[C@H](Cc2ccc(O)cc2)NC(=O)[C@H](Cc2ccccc2)NC(=O)CSC[C@@H](C(=O)N[C@@H](C)C(N)=O)NC(=O)[C@H](CO)NC(=O)[C@H](C(C)C)NC1=O [Example 1122] ({CH2CO}-FYDWV[Bip]R[NMeA][dP]RLVSCA-NH2; thioether N-14)
0.42 | CC(C)C[C@@H]1NC(=O)[C@H](Cc2c[nH]c3ccccc23)NC(=O)[C@H](CC(=O)O)NC(=O)[C@H](Cc2ccc(O)cc2)NC(=O)[C@H](Cc2ccccc2)NC(=O)CSC[C@@H](C(=O)N[C@@H](C)C(N)=O)NC(=O)[C@H](CO)NC(=O)[C@H](C(C)C)NC(=O)[C@H](CC(C)C)NC(=O)[C@H](CC(N)=O)NC(=O)CN(C)C(=O)[C@H](C)N(C)C(=O)[C@H](CCC(=O)O)NC(=O)[C@H](Cc2ccc(-c3ccccc3)cc2)NC1=O [Example 1119] ({CH2CO}-FYDWL[Bip]E[NMeA][Sar]NLVSCA-NH2; thioether N-14)
0.11 | CC(C)C[C@@H]1NC(=O)[C@H](CCN)NC(=O)[C@H](Cc2ccccc2)N(C)C(=O)[C@H](C)N(C)C(=O)[C@H](CCCNC(=N)N)NC(=O)[C@H](Cc2ccc(-c3ccccc3)cc2)NC(=O)[C@H](C(C)C)NC(=O)[C@H](Cc2c[nH]c3ccccc23)NC(=O)[C@H](CC(=O)O)NC(=O)[C@H](Cc2ccc(O)cc2)NC(=O)[C@H](Cc2cnc[nH]2)NC(=O)CSC[C@@H](C(=O)N[C@@H](C)C(N)=O)NC(=O)[C@H]([C@@H](C)O)NC(=O)[C@H](C(C)C)NC1=O [Example 1321] ({CH2CO}-HYDWV[Bip]R[NMeA][NMeF][Dab]LVTCA-NH2; thioether N-14)
0.14 | CC(C)C[C@@H]1NC(=O)[C@H](CCCNC(=N)N)NC(=O)[C@H](Cc2ccccc2)N(C)C(=O)[C@H](C)N(C)C(=O)[C@H](CCCNC(=N)N)NC(=O)[C@H](Cc2ccc(-c3ccccc3)cc2)NC(=O)[C@H](C(C)C)NC(=O)[C@H](Cc2c[nH]c3ccccc23)NC(=O)[C@H](CC(=O)O)NC(=O)[C@H](Cc2ccc(CN)cc2)NC(=O)[C@H](Cc2ccccc2)NC(=O)CSC[C@@H](C(=O)NCC(N)=O)NC(=O)[C@H](CO)NC(=O)[C@H](C(C)C)NC1=O [Example 1277] ({CH2CO}-F[Phe(4-CH2NH2)]DWV[Bip]R[NMeA][NMeF]RLVSCG-NH2; thioether N-14)
0.24 | CC(C)C[C@@H]1NC(=O)[C@H](CCCNC(=N)N)NC(=O)[C@H](Cc2ccccc2)N(C)C(=O)[C@H](C)N(C)C(=O)[C@H](CN)NC(=O)[C@H](Cc2ccc(-c3ccccc3)cc2)NC(=O)[C@H](C(C)C)NC(=O)[C@H](Cc2c[nH]c3ccccc23)NC(=O)[C@H](CC(=O)O)NC(=O)[C@H](Cc2ccc(O)cc2)NC(=O)[C@H](Cc2ccccc2)NC(=O)CSC[C@@H](C(=O)NCC(N)=O)NC(=O)[C@H](CO)NC(=O)[C@H](C(C)C)NC1=O [Example 1242] ({CH2CO}-FYDWV[Bip][Dap][NMeA][NMeF]RLVSCG-NH2; thioether N-14)
0.95 | CC(C)C[C@@H]1NC(=O)[C@H](Cc2c[nH]c3ccccc23)NC(=O)[C@H](CC(=O)O)NC(=O)[C@H](Cc2ccc(O)cc2)NC(=O)[C@H](Cc2ccccc2)NC(=O)CSC[C@@H](C(=O)N[C@@H](C)C(N)=O)NC(=O)[C@H](CO)NC(=O)[C@H](C(C)C)NC(=O)[C@H](CC(C)C)NC(=O)[C@H](CC(N)=O)NC(=O)CN(C)C(=O)[C@@H](CCN)NC(=O)[C@H](C(C)C)NC(=O)[C@H](Cc2ccc(-c3ccccc3)cc2)NC1=O [Example 1196] ({CH2CO}-FYDWL[Bip]V[dDab][Sar]NLVSCA-NH2; thioether N-14)
0.02 | Cc1cccc(C[C@@H]2NC(=O)[C@H](CC(=O)O)NC(=O)[C@H](Cc3ccc(OCC(=O)O)cc3)NC(=O)[C@H](Cc3ccncc3)NC(=O)CSC[C@@H](C(=O)N[C@@H](CCN)C(N)=O)NC(=O)[C@H](CO)NC(=O)[C@H](C(C)(C)O)NC(=O)[C@H](CC3CCCCC3)NC(=O)[C@H](CCN)NC(=O)[C@H]3CCCN3C(=O)[C@H](C)N(C)C(=O)[C@H](CCCNC(N)=O)NC(=O)[C@H](Cc3ccc(-c4ccccc4)cc3)NC(=O)[C@H](Cc3ccc(OCC(=O)O)cc3)NC2=O)c1 [Example 1180] ({CH2CO}-[4Pal]Y(Carboxymethyl)D[Phe(3-Me)]Y(Carboxymethyl)[Bip][Cit][NMeA][dP][Dab][Cha][Val(3-OH)]SC[Dab]-NH2; thioether N-14)
0.31 | CC(C)C[C@@H]1NC(=O)[C@H](Cc2c[nH]c3ccccc23)NC(=O)[C@H](CC(=O)O)NC(=O)[C@H](Cc2ccc(O)cc2)NC(=O)[C@H](Cc2ccccc2)NC(=O)CSC[C@@H](C(=O)N[C@@H](C)C(N)=O)NC(=O)[C@H](CO)NC(=O)[C@H](C(C)C)NC(=O)[C@H](CC(C)C)NC(=O)[C@H](CCCCN)NC(=O)CN(C)C(=O)[C@H](C)N(C)C(=O)[C@H](C(C)C)NC(=O)[C@H](Cc2ccc(-c3ccccc3)cc2)NC1=O [Example 1099] ({CH2CO}-FYDWL[Bip]V[NMeA][Sar]KLVSCA-NH2; thioether N-14)
0.25 | CC(C)C[C@@H]1NC(=O)[C@H](Cc2c[nH]c3ccccc23)NC(=O)[C@H](CC(=O)O)NC(=O)[C@H](Cc2ccc(O)c([N+](=O)[O-])c2)NC(=O)[C@H](Cc2ccccc2)NC(=O)CSC[C@@H](C(=O)N[C@@H](C)C(N)=O)NC(=O)[C@H](CO)NC(=O)[C@H](C(C)C)NC(=O)[C@H](CC(C)C)NC(=O)[C@H](CC(N)=O)NC(=O)CN(C)C(=O)[C@H](C)N(C)C(=O)[C@H](C(C)C)NC(=O)[C@H](Cc2ccc(-c3ccccc3)cc2)NC1=O [Example 1087] ({CH2CO}-F[Tyr(3-NO2)]DWL[Bip]V[NMeA][Sar]NLVSCA-NH2; thioether N-14)
0.03 | CC(C)C[C@@H]1NC(=O)[C@H](CCCNC(=N)N)NC(=O)[C@H](Cc2ccccc2)N(C)C(=O)[C@H](C)N(C)C(=O)[C@H](CCCNC(=N)N)NC(=O)[C@H](Cc2ccc(-c3ccccc3)cc2)NC(=O)[C@H](C(C)C)NC(=O)[C@H](Cc2c[nH]c3ccccc23)NC(=O)[C@H](CC(=O)O)NC(=O)[C@H](Cc2ccc(OCC(=O)O)cc2)NC(=O)[C@H](Cc2ccccc2)NC(=O)CSC[C@@H](C(=O)NCC(N)=O)NC(=O)[C@H](CO)NC(=O)[C@H](C(C)C)NC1=O [Example 1275] ({CH2CO}-FY(Carboxymethyl)DWV[Bip]R[NMeA][NMeF]RLVSCG-NH2; thioether N-14)
0.02 | COc1cccc(C[C@@H]2NC(=O)[C@H](CC(=O)O)NC(=O)[C@H](Cc3cccc(C#N)c3)NC(=O)[C@H](CN)NC(=O)CSC[C@@H](C(=O)N[C@@H](C)C(N)=O)NC(=O)[C@H](CO)NC(=O)[C@H](C(C)C)NC(=O)[C@H](CC(C)C)NC(=O)[C@H](CC(N)=O)NC(=O)[C@H]3CCCN3C(=O)[C@H](C)N(C)C(=O)[C@H](C(C)C)NC(=O)[C@H](Cc3ccc(-c4ccccc4)cc3)NC(=O)[C@H](CC(C)C)NC2=O)c1 [Example 1393] ({CH2CO}-[Dap][Phe(3-CN)]D[Phe(3-OMe)]L[Bip]V[NMeA][dP]NLVSCA-NH2; thioether N-14)
0.79 | CC(C)C[C@@H]1NC(=O)[C@H](Cc2c[nH]c3ccccc23)NC(=O)[C@H](CC(=O)O)NC(=O)[C@H](Cc2ccc(O)cc2)NC(=O)[C@H](C(C)C)NC(=O)CSC[C@@H](C(=O)NCC(N)=O)NC(=O)[C@H](CO)NC(=O)[C@H](C(C)C)NC(=O)[C@H](CC(C)C)NC(=O)[C@H](CC(N)=O)NC(=O)CN(C)C(=O)[C@H](C)N(C)C(=O)[C@H](C(C)C)NC(=O)[C@H](Cc2ccc(-c3ccccc3)cc2)NC1=O [Example 1154] ({CH2CO}-VYDWL[Bip]V[NMeA][Sar]NLVSCG-NH2; thioether N-14)
0.32 | CC(C)C[C@@H]1NC(=O)[C@H](CCCCNC(=N)N)NC(=O)[C@H](Cc2ccccc2)N(C)C(=O)[C@H](C)N(C)C(=O)[C@H](CCCNC(=N)N)NC(=O)[C@H](Cc2ccc(-c3ccccc3)cc2)NC(=O)[C@H](C(C)C)NC(=O)[C@H](Cc2c[nH]c3ccccc23)NC(=O)[C@H](CC(=O)O)NC(=O)[C@H](Cc2ccc(O)cc2)NC(=O)[C@H](Cc2ccccc2)NC(=O)CSC[C@@H](C(=O)NCC(N)=O)NC(=O)[C@H](CO)NC(=O)[C@H](C(C)C)NC1=O [Example 1279] ({CH2CO}-FYDWV[Bip]R[NMeA][NMeF][hArg]LVSCG-NH2; thioether N-14)
0.08 | CC(C)C[C@@H]1NC(=O)[C@H](Cc2c[nH]c3ccccc23)NC(=O)[C@H](CC(=O)O)NC(=O)[C@H](Cc2ccc(O)cc2)NC(=O)C(Cc2ccccc2)NC(=O)CSC[C@@H](C(=O)NCC(N)=O)NC(=O)[C@@H](CO)NC(=O)[C@H](C(C)C)NC(=O)[C@H](CC(C)C)NC(=O)[C@H](CC(N)=O)NC(=O)CN(C)C(=O)[C@H](C)N(C)C(=O)[C@H](C(C)C)NC(=O)[C@H](Cc2ccc(-c3ccccc3)cc2)NC1=O (stereo partly shown) [Example 1043] ({CH2CO}-[ξF]YDWL[Bip]V[NMeA][Sar]NLV[dS]CG-NH2; thioether N-14)
0.74 | CC(C)C[C@@H]1NC(=O)[C@H](Cc2c[nH]c3ccccc23)NC(=O)[C@H](CC(=O)O)NC(=O)[C@H](Cc2ccc(O)cc2)NC(=O)[C@H](Cc2ccc(O)cc2)NC(=O)CSC[C@@H](C(=O)NCC(N)=O)NC(=O)[C@H](CO)NC(=O)[C@H](C(C)C)NC(=O)[C@H](CC(C)C)NC(=O)[C@H](CC(N)=O)NC(=O)CN(C)C(=O)[C@H](C)N(C)C(=O)[C@H](C(C)C)NC(=O)[C@H](Cc2ccc(-c3ccccc3)cc2)NC1=O [Example 1152] ({CH2CO}-YYDWL[Bip]V[NMeA][Sar]NLVSCG-NH2; thioether N-14)
0.24 | CC(C)C[C@@H]1NC(=O)[C@H](Cc2c[nH]c3ccccc23)NC(=O)[C@H](CC(=O)O)NC(=O)[C@H](Cc2ccc(O)cc2)NC(=O)[C@H](Cc2ccccc2)NC(=O)CSC[C@@H](C(=O)N[C@@H](C)C(N)=O)NC(=O)[C@H](CO)NC(=O)[C@H](C(C)C)NC(=O)[C@H](CC(C)C)NC(=O)[C@H](CCC(=O)O)NC(=O)[C@H]2CCCN2C(=O)[C@H](C)N(C)C(=O)[C@H](CCC(=O)O)NC(=O)[C@H](Cc2ccc(-c3ccccc3)cc2)NC1=O [Example 1177] ({CH2CO}-FYDWL[Bip]E[NMeA][dP]ELVSCA-NH2; thioether N-14)
